Like-named read-outs stand apart in the source and are kept apart here.
Tests used:
[1] = on heating in an electronic vapor provision system; compared to many other acids
[2] = Experimental: The determination of pKa values of nicotine in glycerol/water systems was carried out using the basic approach described in “Spectroscopic investigations into the acid-base properties of nicotine at different temperatures”, Peter M. Clayton, Carl A. Vas, Tam T. T. Bui, Alex F. Drake and Kevin McAdam, Anal. Methods, 2013, 5, 81-88, and summarized below. Because the system is predominately non-aqueous the parameter psKa2 was measured, where subscript s refers to the solvent composition in this largely non-aqueous system, and subscript 2 refers to the pKa value of the pyrrolidyl nitrogen.
Further information on the determination of pKa values of nicotine is provided in “Use of chiroptical spectroscopy to determine the ionisation status of (S)-nicotine in e-cigarette formulations and snus”, Clayton et al, ST 49, CORESTA Congress, Qubec City, Canada, 12-16 Oct. 2014 (available at http://www.bat-science.com/groupms/sites/BAT_9GVJXS.nsf/vwPagesWebLive/DO9PVC3 G/$FILE/CORE STA_PC_2014.pdf).
A range of glycerol/water/nicotine solutions were prepared, with the water concentration fixed at 9%, the nicotine concentration varying from 30 μg/ml to 3 mg/ml; and the glycerol content comprising the remainder of the solutions.
Simultaneous UV & CD spectra of glycerol/s-nicotine/water solutions were measured on the Applied Photophysics Ltd (Leatherhead, UK) Chiracsan Plus spectrometer. The UV absorbance & CD spectra were measured between 300-200 nm region, with various pathlengths depending upon the nicotine concentration of the solution—10 mm, 5 mm, 2 mm, 1 mm, 0.5 mm, 0.1 mm and 0.01 mm pathlengths. The instrument was flushed continuously with pure evaporated nitrogen throughout the measurements. Throughout measurements spectra were recorded with a 0.5 nm step size, a 1 s measurement time-per-point and a spectral bandwidth of 2 nm. Where possible, all CD spectra were smoothed with a window factor of 4 using the Savitzky-Golay method for better presentation.
Solutions of S-Nicotine in glycerol/water were pH titrated at 23° C. The pH of these solutions was raised towards alkaline by adding small aliquots of NaOH (˜pH10) and then lowered to pH2 by adding small aliquots of HCl. A series of 0.1M, 0.5M, 1M, 5M and 10M of HCl and NaOH solutions were used during the pH titration. pHs were measured at 23° C. using a Corning pH105 pH meter with a RMS pH electrode. […] Due to the viscosity of the solutions, and the optical density in the CD spectra of the high nicotine concentration solutions, very small path-length cells were required for nicotine concentrations above 3 mg/ml.

Row | SMILES | level of acid transfer to the aerosol [1] | production of degradation products [1] | psKa2 ([2]; at 30 mg/ml nicotine concentration, from curve fitting (regression fit to FIG. 1)) | psKa2 ([2]; nicotine 0.03 g/L (0.185 mM), 9% water, nicotine/glycerol system, 23° C.) | psKa2 ([2]; nicotine 0.06 g/L (0.370 mM), 9% water, nicotine/glycerol system, 23° C.) | psKa2 ([2]; nicotine 0.3 g/L (1.85 mM), 9% water, nicotine/glycerol system, 23° C.) | psKa2 ([2]; nicotine 0.6 g/L (3.70 mM), 9% water, nicotine/glycerol system, 23° C.) | psKa2 ([2]; nicotine 3 g/L (18.53 mM), 9% water, nicotine/glycerol system, 23° C.)
1 | O=C(O)c1ccccc1 [benzoic acid] | greater | less |  |  |  |  |  | 
2 | CC(=O)CCC(=O)O [levulinic acid] | greater |  |  |  |  |  |  | 
3 | CN1CCC[C@H]1c1cccnc1 [nicotine, 3-(1-methylpyrrolidin-2-yl) pyridine] |  |  | 7.26 | 7.49 | 7.34 | 7.30 | 7.27 | 7.25

Source: patent publication US11044937B2, “Solution comprising nicotine in unprotonated form and protonated form” (Nicoventures Holdings Limited, priority 2014, dated 2021)
